This is an account of results in article PMC13249053, “Mechanism of auranofin toxicity: Inhibition of tetrahydrobiopterin metabolism” (Toxicology and applied pharmacology, 2025).

Several values for one entry are separate records, joined by “and”; a condition that tells them apart may be missing. Equal entries are not always repeated. Where two headings read alike, the source gives them in different places.

By IC50 is commonly meant the point on the concentration scale where inhibition reaches its midpoint.

The target in assay [1] is T1, SPR (Homo sapiens, UniProt P35270). The experiment in a line: Sepiapterin reduction by recombinant SPR (absorbance at 420 nm). The format is biochemical. More on the design: made in house. The protocol:
Sepiapterin reductase activity was assayed by measuring decreases in sepiapterin absorbance at 420 nm as described by Kato ([Kato, 1971]) with some modifications. Briefly, standard reaction mixes contained 100 mM potassium phosphate buffer, pH 7.0, 100 μM NADPH, 50 μM sepiapterin and 1 μg of enzyme protein in a final volume of 0.2 ml. Changes in absorbance of sepiapterin were monitored using a Spectramax M5 microplate reader (Molecular Devices, Sunnyvale, CA). […] Chemical redox cycling by SPR was assayed by measuring the formation of superoxide anion in the presence of menadione as previously described ([Yang et al., 2013]). […] Superoxide anion was measured spectrophotometrically by the reduction of acetylated cytochrome c at 550 nm. DHFR activity was measured as previously described ([Whitsett et al., 2013]) with some modifications. […] Enzyme activity was monitored by decreases in absorbance of NADPH at 340 nm using a microplate reader. […]
Fig. 5. […] SPR was measured in enzyme assays by decreases in sepiapterin absorbance at 420 nm as described in the Materials and Methods. DHFR activity in enzyme assays was measured by decreases in absorbance of NADPH at 340 nm. […] Redox cycling was measured spectrophotometrically by the reduction of acetylated cytochrome c at 550 nm during the formation of superoxide anion in enzyme assays in the presence of 100 μM menadione.

Assay [2] has as its target T1, SPR. Briefly: BH2 and BH4 production from sepiapterin in intact HaCaT cells (HPLC). Format: cell-based. More on the design: endogenous in cells; host or cells: HaCaT, Jurkat, BeWo, SKNMC, CX-1. The following applies: auranofin 2 h, then 100 μM sepiapterin 3 h, read-out: IC50, inhibition of SPR (BH2+BH4 formation) in intact HaCaT cells. The protocol: The growth medium was then removed and the cells incubated with growth medium containing 100 μM sepiapterin. […] BH2 and BH4 were then analyzed on a Jasco high-performance liquid chromatography system (Easton, MD) fitted with a Maxsil-10 C18 column (250 × 4 mm; Phenomenex, Torrance, CA). […] Cell viability following drug treatments was greater than 95 %.
Fig. 3. Effects of auranofin on BH2 and BH4 production in intact HaCaT cells treated with sepiapterin. HaCaT cells (~1 × 10^6 cells/well in 6 well culture plates) were incubated with control medium or medium containing increasing concentrations of auranofin for 2 h followed by 100 μM sepiapterin. After an additional 3 h, BH2 and BH4 were extracted from the cells and analyzed by HPLC with fluorescence detection. Left panel: Chromatograms showing BH2 and BH4 content of control cells and cells treated with Auranofin.

The target in the next assay is T2, DHFR (Homo sapiens, UniProt P00374).
T2 sequence (P00374 1-187): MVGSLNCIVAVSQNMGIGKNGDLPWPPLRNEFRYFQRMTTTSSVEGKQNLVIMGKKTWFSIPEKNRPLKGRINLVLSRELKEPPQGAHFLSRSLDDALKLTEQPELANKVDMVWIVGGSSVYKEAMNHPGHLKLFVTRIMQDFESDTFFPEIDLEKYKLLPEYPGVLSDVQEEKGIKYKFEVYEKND
Briefly: Cellular DHFR activity: BH4 formation from BH2, human cell lines. Format: cell-based. On the set-up: endogenous in cells; host or cells: HaCaT, Jurkat, BeWo, SKNMC, CX-1. The protocol:
Metabolic products of sepiapterin (BH2 and BH4) in intact cells and cell lysates were measured using HPLC as previously described ([Ferre and Naylor, 1988]) with some modifications ([Yang et al., 2013]; [Yang et al., 2015]). Briefly, cells in six-well culture dishes were grown until 60–70 % confluent (~1 × 10^6 cells/well). The growth medium was then removed and the cells incubated with growth medium containing 100 μM sepiapterin. After 3 h, cells were harvested, centrifuged (1500 g, 10 min), and pellets suspended in 200 μl of lysis buffer (50 mM Tris-HCl, pH 7.4, 137 mM NaCl, 0.5 % Nonidet P-40 (NP-40), 0.5 mM EDTA) for 20 min on ice. […] Thirty min later, 50 μl of 1 M H3PO4 was added to the supernatants and the precipitated proteins removed by centrifugation (15,000 g, 3 min). After standing for 10 min at room temperature, excess iodine was reduced by the addition of 25 μl of 57 mM ascorbic acid to the reaction mix. BH2 and BH4 were then analyzed on a Jasco high-performance liquid chromatography system (Easton, MD) fitted with a Maxsil-10 C18 column (250 × 4 mm; Phenomenex, Torrance, CA). Fluorescence was monitored using a Jasco FP-2020 spectrofluorometer with excitation and emission wavelengths set at 362 and 435 nm, respectively ([Yang et al., 2013]; [Yang et al., 2015]).
Fig. 8. […] DHFR enzyme activity in the cells was assayed by the metabolism of BH2 to BH4. Upper panels. HaCaT cells were treated with control medium or medium containing increasing concentrations of auranofin for 2 h followed by the addition of 200 μM BH2. After an additional 3 h, cells were rinsed with PBS and BH2 and BH4 analyzed by HPLC as described in the Materials and Methods. Lower panels. […] Cells were treated with the drug for increasing periods of time (0–2 h) followed by 200 μM BH2. After an additional 3 h, cells were rinsed with PBS and analyzed for BH2 and BH4 content.

T1 sequence (P35270 whole entry): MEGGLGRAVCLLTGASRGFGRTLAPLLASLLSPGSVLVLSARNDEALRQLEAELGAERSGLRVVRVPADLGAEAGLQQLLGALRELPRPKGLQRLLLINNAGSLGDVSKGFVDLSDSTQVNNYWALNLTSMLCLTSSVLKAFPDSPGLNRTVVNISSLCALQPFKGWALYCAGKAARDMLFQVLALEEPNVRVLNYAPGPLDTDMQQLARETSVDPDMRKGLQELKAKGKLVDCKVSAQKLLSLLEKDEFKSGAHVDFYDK

Consider `CC[PH](CC)(CC)[Au][S][C@@H]1O[C@H](COC(C)=O)[C@@H](OC(C)=O)[C@H](OC(C)=O)[C@H]1OC(C)=O` [auranofin, 2,3,4,6-tetra-O-acetyl-1-thio-β-D-glucopyranosato-S-triethyl phosphine gold], for which, at SPR [1] (10 μM auranofin, n = 3, P < 0.05), the “recombinant SPR activity versus control” value was “Significantly different”. In addition, the IC50 is 1.5 µM and 1.53 µM on SPR [1] (50 μM sepiapterin, 100 μM NADPH, pH 7.0, auranofin added 10 min before, read-out: IC50, inhibition of sepiapterin reduction by recombinant SPR); 12.8 µM at SPR [2]; 3.9 ± 0.15 µM on DHFR (BeWo (human choriocarcinoma), BH4 formation from BH2, read-out: DHFR IC50, BeWo cells); 7.3 ± 0.1 µM on DHFR (CX-1 (human colon adenocarcinoma), BH4 formation from BH2, read-out: DHFR IC50, CX-1 cells); 6.3 ± 0.75 µM on DHFR (HaCaT (human keratinocytes), auranofin 2 h, then 200 μM BH2 3 h, read-out: DHFR IC50, HaCaT cells); 5.4 ± 0.07 µM on DHFR (Jurkat (human leukemia), BH4 formation from BH2, read-out: DHFR IC50, Jurkat cells). The IC50 at DHFR (SKNMC (human neuroblastoma), BH4 formation from BH2, read-out: DHFR IC50, SKNMC cells) turned out to be 15.2 ± 0.53 µM. Moreover, the “time of pretreatment to maximal inhibition of cellular DHFR” value on DHFR (HaCaT cells, 20 μM auranofin) was found to be 2 h.
